Measured values taken from US11930812B2, “Coating materials for seeds and for particulate materials, including fertilizers” (ADVANCED BIOLOGICAL MARKETING, INC., priority 2017, dated 2024).

Tests used:
corn [1] = experiment: Corn root development in PVC tubes in natural field soil after seed treatment; assay type: in vivo; settings: seed treated with 0.7 μl; corn maturity, 3 months after application; PVC tubes about 4 M long; FIG. 1A
Description: In the roots produced in field soil in PVC pipes, adequate water was applied throughout the growing season. Conversely, in the field trial shown in FIG. 1, the plants were subject to severe drought, according to official weather service notices. In both cases, the growth of roots was much greater when produced from seeds treated with the chemical. […] Turning to FIG. 1 in detail, pictured are the development of corn roots from seeds not treated (left) or treated with 0.7 μl of 1-octen-3-ol (right) at the time of corn maturity (that is, 3 months after application of octenol). In FIG. 1A, plants were grown in PVC tubes about 4 M long in natural field soil, and the treated seeds produced roots that exceeded the control by about 50%. Length of roots are indicated in meters (M) by the scale at right.

corn [2] = experiment: Corn root length in field grown plants (back hoe trench) after seed treatment; assay type: in vivo; settings: seed treatment 0.7 μl, severe drought, control root 30 cm, FIG. 1B
Text: In the roots produced in field soil in PVC pipes, adequate water was applied throughout the growing season. Conversely, in the field trial shown in FIG. 1, the plants were subject to severe drought, according to official weather service notices. In both cases, the growth of roots was much greater when produced from seeds treated with the chemical. […] When grown in the field, that is, in a setting where maximum root length was not impeded by the experiment itself, a similar or better result obtained. In FIG. 1B, roots were exposed in field grown plants with a back hoe trench and photographed. The images were adjusted so that the root volume in each is proportionally sized. In the control shown the root was 30 cm long, and with the treatment the root was 78 cm long to deepest part of the root visible.

corn [3] = experiment: Corn field trials 2015, yields after seed treatment; assay type: in vivo; settings: seed treatment about 0.7 μl, 2-3 months post-planting
Description: Turning to FIG. 2 in detail, pictured are long-term effects of 1-octen-3-ol (represented as the designation “Omega” on the chart) on yields of corn, yield increases in squash and control of powdery mildew on squash. Treatments in every case were seed treatments with about 0.7 μl of 1-octen-3-ol. […] FIGS. 2A and 2B show yields of corn in field trials, 2015.

squash = experiment: Field-grown squash yield after seed treatment; assay type: in vivo; settings: seed treatment about 0.7 μl; differences significant at P=0.01; FIG. 2C
Description: (§1) Turning to FIG. 2 in detail, pictured are long-term effects of 1-octen-3-ol (represented as the designation “Omega” on the chart) on yields of corn, yield increases in squash and control of powdery mildew on squash. Treatments in every case were seed treatments with about 0.7 μl of 1-octen-3-ol. […] FIGS. 2C and 2D show yield differences and disease resistance, as indicated by occurrence of powdery mildew from natural infection in field-grown squash following the same seed treatment protocol as above. The differences shown are significant at P=0.01. The yields are weights of fruit/ac. The powdery mildew disease rating is 0=no disease, 1=1 lesion/leaf, 2=2 lesions/leaf and 3=3 lesions per leaf.

powdery mildew = experiment: Powdery mildew from natural infection in field-grown squash after seed treatment; assay type: in vivo; settings: seed treatment about 0.7 μl, differences significant at P=0.01, FIG. 2D
Description: as §1

corn [4] = experiment: Field trials of seed treatment, early-season flooding stress; assay type: in vivo; settings: seed treatment 0.7 μl/seed
[5] = moderate toxicity; cited from earlier work
corn [6] = experiment: Corn seedling size after seed or urea fertilizer treatment with cyclodextrin/6PP; assay type: in vivo; settings: cyclodextrin formulation; 0.2, 2 and 20 μl/seed or μl/g of urea fertilizer; plants about 15 days old; FIG. 4
Description: FIG. 4 illustrates corn seedling size following seed treatments at 0 (CO), 0.2, 2 and 20 μl/seed or of fertilizer with cyclodextrin/6PP at 0 (CO), 0.2, 2 and 20 μl/g of urea fertilizer. Plants were about 15 days old and bars with dissimilar letters denote statistical differences at P=0.01. The formulation systems designated here can be used with many other triggering compounds, signal molecules, or substances. In FIG. 4 is shown data on 6-pentyl pyrone (6PP) used with the same cyclodextrin formulation described above for use with 1-octen-3-ol. 6PP is effective in this use.

C=CC(O)CCCCC (stereo not drawn) [1-octen-3-ol]
roots exceeding the control (corn [1]): about 50% | root length to deepest part of the root visible (corn [2]): 78 cm | biomass yield of corn versus untreated (corn [3]; FIG. 2A): significantly higher yields | grain yield of corn versus untreated (corn [3]; FIG. 2B): significantly higher yields | squash yield (weights of fruit/ac) (squash): systemically enhanced | disease resistance (powdery mildew disease rating) (powdery mildew): systemically enhanced | resistance to flooding stress (corn [4]): resistance to early-season flooding stress | LD 50 [5]: 340 mg/kg

CCCCCc1cccc(=O)o1 [6PP, 6-pentyl pyrone]
corn seedling size (corn [6]): effective
